For one assay, the target named is T1, RavS^ΔTrM (Xanthomonas campestris pv. campestris, UniProt Q8P9A6).
T1 sequence (Q8P9A6 47-697): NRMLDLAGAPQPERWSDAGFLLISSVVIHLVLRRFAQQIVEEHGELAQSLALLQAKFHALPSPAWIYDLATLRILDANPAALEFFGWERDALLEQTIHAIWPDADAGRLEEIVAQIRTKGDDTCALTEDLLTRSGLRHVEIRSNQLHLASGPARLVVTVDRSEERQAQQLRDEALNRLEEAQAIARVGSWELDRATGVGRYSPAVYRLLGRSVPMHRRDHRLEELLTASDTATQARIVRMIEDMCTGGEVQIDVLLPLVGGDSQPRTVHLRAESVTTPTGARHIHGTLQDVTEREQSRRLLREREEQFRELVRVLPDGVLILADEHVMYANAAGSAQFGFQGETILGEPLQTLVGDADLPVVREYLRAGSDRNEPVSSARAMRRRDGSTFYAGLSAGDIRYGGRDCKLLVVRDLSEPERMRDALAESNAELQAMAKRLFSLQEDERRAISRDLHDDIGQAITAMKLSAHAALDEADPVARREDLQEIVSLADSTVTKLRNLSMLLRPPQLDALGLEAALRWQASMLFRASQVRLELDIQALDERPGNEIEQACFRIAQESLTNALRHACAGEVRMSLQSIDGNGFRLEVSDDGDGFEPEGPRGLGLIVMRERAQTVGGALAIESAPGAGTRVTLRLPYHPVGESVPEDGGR
Nature of the assay: microscale thermophoresis (MST) binding. Conditions: 20 nM fluorescein-labelled nucleotide, read-out: dissociation constant (Kd). The protocol: (a) c-di-GMP enhances RavS-RavR phosphotransfer in vitro. A total of 5 μM RavS^ΔN was autophosphorylated for 15 min by the addition of 10 μCi [γ-^32P]ATP. A total of 15 μM RavR^ΔEAL or RavR^ΔEAL(D496A) was added and incubated for 30 min at 25°C. A total of 100 μM c-di-GMP was added if necessary. The reactions were terminated with 5× SDS loading buffer before autoradiography. The experiment was repeated three times. (b) Time course analyses of the impact of c-di-GMP on the velocity of RavS-RavR phosphotransfer. The autophosphorylation and phosphotransfer reactions were set as mentioned in (a). Various concentrations of c-di-GMP were added to the reactions and isotopic signals (band intensities) of RavS~P were measured after autoradiography. (c–d) c-di-GMP triggered an increase in RavS-RavR phosphotransfer in a dose-dependent manner. (c) Various concentrations of c-di-GMP (0, 5, 10, 15, 30, 50, 75 and 100 μM) were added to the RavS-RavR phosphotransfer reactions. (d) The phosphorylated level of RavS^ΔN~P was quantified by ImageJ and the EC50 value was estimated by Origin 8.5 software. In (b) and (d), the intensity of each data point is the average from three experimental repeats. (e) c-di-GMP triggered increase in RavS-RavR phosphotransfer is highly specific. […] The interaction between RavS^ΔTrM and various nucleotides, including fl-c-di-GMP, fl-cGMP and fl-c-di-AMP, were measured by microscale thermophoresis (MST). A total of 20 nM fluorescein-labelled nucleotides and increasing concentrations of proteins were incubated and measured by MST. The dissociation constant (Kd) was quantified to estimate the binding affinity. […]
The interaction between c-di-GMP nucleotides and various proteins was measured by using MST with a fluorescein-labelled c-di-GMP (2′-Fluo-AHC-c-di-GMP, abbreviated as fl-c-di-GMP; 2′-Fluo-AHC-c-di-AMP, fl-c-di-AMP; 2′-Fluo-AHC-cGMP, fl-cGMP; Biolog, Germany). These chemicals contain carboxyfluorescein that has excitation and emission wavelengths of 497 nm and 520 nm, respectively, which can be detected directly by a MST instrument. […]
For orientation: Microscale thermophoresis detects binding through changes in fluorescence in a small temperature gradient.

Another assay has as its target RavA (Xanthomonas campestris pv. campestris, UniProt Q8P9A8). In words: microscale thermophoresis (MST) binding. Conditions: 20 nM fluorescein-labelled nucleotide, read-out: dissociation constant (Kd). The protocol:
The interaction between c-di-GMP nucleotides and various proteins was measured by using MST with a fluorescein-labelled c-di-GMP (2′-Fluo-AHC-c-di-GMP, abbreviated as fl-c-di-GMP; 2′-Fluo-AHC-c-di-AMP, fl-c-di-AMP; 2′-Fluo-AHC-cGMP, fl-cGMP; Biolog, Germany). These chemicals contain carboxyfluorescein that has excitation and emission wavelengths of 497 nm and 520 nm, respectively, which can be detected directly by a MST instrument. The experiments were performed on a Monolith NT.115 device using standard treated capillaries (NanoTemper Technologies, Germany). The concentration of the particular protein varied from 0.036 to 150 μM with a 2-fold gradient and the concentration of fl-c-di-GMP was constant at 20 nM. Fluorescence intensity due to thermophoresis was recorded using the blue channel optics of the instrument (λex = 470 ± 15 nm, λem = 520 ± 10 nm) during a 30 s period of infrared laser heating at 80% of the maximum laser power, followed by a 5 s cooling period. Measurements were performed in buffer containing 20 mM HEPES, pH 7.5, 150 mM NaCl, 2 mM MgCl2, 2 mM DTT and 0.05% Tween 20. […]
Supplementary file ppat.1007952.s007.pdf: S7 Fig c-di-GMP specifically binds to RavS to enhance the RavS-RavR phosphotransfer. […] The interactions of RavS^ΔN, RavA, VgrS and RavR^ΔEAL with fl-c-di-GMP were measured by microscale thermophoresis (MST). Twenty nanomolar fluorescein-labelled nucleotides and increasing concentrations of proteins were co-incubated and potential interactions were measured by MST. The dissociation constant (Kd) was determined to estimate the binding affinity. […]
(b) RavSΔN specifically interacts with fl-c-di-GMP. The interactions of RavSΔN, RavA, VgrS and RavRΔEAL with fl-c-di-GMP were measured by microscale thermophoresis (MST). Twenty nanomolar fluorescein-labelled nucleotide and increasing concentrations of proteins were co-incubated and potential interactions were measured by MST.
The dissociation constant (Kd) was determined to estimate the binding affinity. […]

A further assay concerns the target PizD. More on the design: method as in PMID 26055114. The conditions noted are these: lower end of reported range; cited from earlier work.

Several values for one entry are separate records, joined by “and”; a condition that tells them apart may be missing. Identical values can stand only once.

Chain of RavA (Q8P9A8 entry or part of it): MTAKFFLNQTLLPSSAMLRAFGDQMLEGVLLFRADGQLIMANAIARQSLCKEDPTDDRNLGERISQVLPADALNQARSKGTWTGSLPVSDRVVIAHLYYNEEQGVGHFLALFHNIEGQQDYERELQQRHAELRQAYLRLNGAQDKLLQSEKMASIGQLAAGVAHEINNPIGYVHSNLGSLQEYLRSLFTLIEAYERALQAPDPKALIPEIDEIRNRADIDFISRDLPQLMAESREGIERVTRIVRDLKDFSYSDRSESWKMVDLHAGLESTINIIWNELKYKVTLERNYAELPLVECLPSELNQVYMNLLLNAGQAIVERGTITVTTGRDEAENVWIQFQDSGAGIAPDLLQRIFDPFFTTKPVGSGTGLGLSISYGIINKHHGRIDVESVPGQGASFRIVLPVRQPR

`Nc1nc2c(ncn2[C@@H]2O[C@@H]3COP(=O)(O)O[C@H]4[C@@H](OC(=O)NCCCCCCNC(=O)c5ccc6c(c5)C(=O)OC65c6ccc(O)cc6Oc6cc(O)ccc65)[C@H](n5cnc6c(=O)[nH]c(N)nc65)O[C@@H]4COP(=O)(O)O[C@H]3[C@H]2O)c(=O)[nH]1` [fl-c-di-GMP, 2′-Fluo-AHC-c-di-GMP]: the Kd was 6.06 ± 0.92 µM on RavS^ΔTrM; 116 µM and > 80 µM on RavA.
In the case of `Nc1nc2c(ncn2[C@@H]2O[C@@H]3COP(=O)(O)O[C@H]4[C@@H](O)[C@H](n5cnc6c(=O)[nH]c(N)nc65)O[C@@H]4COP(=O)(O)O[C@H]3[C@H]2O)c(=O)[nH]1` [c-di-GMP, Cyclic di-GMP], at PizD, the Kd was 0.1 µM.

One may read the Kd as the constant that tells how readily two partners part at equilibrium.

Source of the values: PMC6707612, “Cyclic-di-GMP binds to histidine kinase RavS to control RavS-RavR phosphotransfer and regulates the bacterial lifestyle transition between virulence and swimming” (PLoS Pathogens, 2019).
